According to patent US9994535B2, “Desferrithiocin polyether analogues” (University of Florida Research Foundation, Inc., priority 2005, dated 2018):

Columns and labels:
Format in all cases: in vivo
[1] = Iron clearing efficiency in non-iron overloaded, bile duct cannulated rat model; details: for Efficiency (%) (iron clearing efficiency): 300 μmol/kg, 24 hour iron excretion, 2:1 ligand-iron complex
Procedure: Iron Clearing Efficiency of Iron Chelators in a Non-Iron Overloaded, Bile Duct Cannulated Rat Model
Studies were performed in the non-iron overloaded, bile duct cannulated rodent model with the compounds shown below.
Briefly, male Sprague-Dawley rats averaging 450 g were housed in Nalgene plastic metabolic cages during the experimental period and given free access to water. The animals were anesthetized using sodium pentobarbital (55 mg/kg) administered intraperitoneally. The bile duct was cannulated using 22-gauge polyethylene tubing. The cannula was inserted into the duct about 1 cm from the duodenum and tied snugly in place. After threading through the shoulder, the cannula was passed from the rat to the swivel inside a metal torque-transmitting tether, which was attached to a rodent jacket around the animal's chest. The cannula was directed from the rat to a Gilson microfraction collector (Middleton, Wis.) by a fluid swivel mounted above the metabolic cage. Three hour bile samples were continuously collected for a minimum of 24 hours up to 48 hours. However, the efficiency calculations are based on the 24 hour iron excretion. The efficiency of each chelator was calculated on the basis of a 2:1 ligand-iron complex. The efficiencies in the rodent model were calculated by subtracting the iron excretion of control animals from the iron excretion of treated animals. This number was then divided by the theoretical output; the result is expressed as a percentage (Bergeron, R. J., et al., J. Med Chem. 42:95-108 (1999) the entire contents of which are incorporated herein by reference). The urine sample was taken at 24 hours and handled as previously described in Bergeron, R. J., et al., J. Med. Chem. 34:2072-2078 (1991), the entire contents of which are incorporated herein by reference.

[2] = Iron clearing efficiency in iron-overloaded Cebus apella monkey model; details: primates, given either p.o. or s.c.
Procedure: Iron Chelators in a Cebus apella Monkey Model Studies were performed in the iron-overloaded monkey model with the compounds shown below: The protocol used can be found in Bergeron, R. J. et al., “Methoxylation of Desazadesferrithiocin Analogues: Enhanced Iron Clearing Efficiency,” J. Med. Chem. 46:1470-1477 (2003), the contents of which are incorporated herein by reference. Briefly, the monkeys were iron overloaded with iron dextran administered intravenously to result in an iron loading of about 500 mg per kg of body weight. At least 20 half-lives, 60 days, elapsed before the animals were used in experiments evaluating iron chelators. Fecal and urine samples were collected at 24 hour intervals beginning 4 days prior to the administration of an iron chelator and continued for 5 days after the chelator was administered. Iron concentrations in stool and urine were determined by flame atomic absorption spectroscometry. Iron chelator efficiency was calculated by dividing the net iron clearance [total iron excretion (stool plus urine) minus background] by the theoretical iron clearance and multiplying by 100. The theoretical clearance of the iron chelator was generated on the basis of a 2:1 ligand/iron complex.

[3] = Tissue and plasma concentrations upon subcutaneous administration to rats; details: rat
Procedure: Tissue Distribution of a Polyether-Substituted (S)-4′-Hydroxydesazadesferrithiocin Analogue [(S)-4′-(HO)-DADFT-PE] Upon Subcutaneous Administration to Rats
A measurement was made assessing (S)-4′-(HO)-DADFT-PE and (S)-4′-(HO)-DADFT tissue and plasma concentrations upon subcutaneous administration at times from 2-8 h post dosing. The rats were given this compound subcutaneously at 300 μmol/kg. The tissue and plasma level were obtained as described in Bergeron et al. J Med Chem. 48:821-831 (2005), the entire contents of which are incorporated herein by reference.

Tissue distribution (where most is found) ([3]; sc): found in the liver, kidney and pancreas | Brain concentration of administered compound ([3]; sc 300 μmol/kg, 2 h): 0.5 ± 0.9 nmol/g wet wt | Brain concentration of administered compound ([3]; sc 300 μmol/kg, 4 h): 0.0 ± 0.0 nmol/g wet wt | Brain concentration of administered compound ([3]; sc 300 μmol/kg, 6 h): 0.0 ± 0.0 nmol/g wet wt | Brain concentration of administered compound ([3]; sc 300 μmol/kg, 8 h): 0.0 ± 0.0 nmol/g wet wt | Heart concentration of administered compound ([3]; sc 300 μmol/kg, 2 h): 9.2 ± 2.6 nmol/g wet wt | Heart concentration of administered compound ([3]; sc 300 μmol/kg, 4 h): 5.3 ± 1.4 nmol/g wet wt | Heart concentration of administered compound ([3]; sc 300 μmol/kg, 6 h): 0.0 ± 0.0 nmol/g wet wt | Heart concentration of administered compound ([3]; sc 300 μmol/kg, 8 h): 2.0 ± 1.7 nmol/g wet wt | Kidney concentration of administered compound ([3]; sc 300 μmol/kg, kidney, 2 h): 41.1 ± 3.0 nmol/g wet wt | Kidney concentration of administered compound ([3]; sc 300 μmol/kg, kidney, 4 h): 33.7 ± 13.5 nmol/g wet wt | Kidney concentration of administered compound ([3]; sc 300 μmol/kg, kidney, 6 h): 13.7 ± 2.1 nmol/g wet wt | Kidney concentration of administered compound ([3]; sc 300 μmol/kg, kidney, 8 h): 7.4 ± 2.1 nmol/g wet wt | Liver concentration of administered compound ([3]; sc 300 μmol/kg, 2 h): 131.6 ± 32.2 nmol/g wet wt | Liver concentration of administered compound ([3]; sc 300 μmol/kg, 4 h): 66.9 ± 12.4 nmol/g wet wt | Liver concentration of administered compound ([3]; sc 300 μmol/kg, 6 h): 34.3 ± 1.5 nmol/g wet wt | Liver concentration of administered compound ([3]; sc 300 μmol/kg, 8 h): 25.4 ± 4.6 nmol/g wet wt | Pancreas concentration of administered compound ([3]; sc 300 μmol/kg, 2 h): 29.6 ± 24.8 nmol/g wet wt | Pancreas concentration of administered compound ([3]; sc 300 μmol/kg, 4 h): 12.6 ± 5.2 nmol/g wet wt | Pancreas concentration of administered compound ([3]; sc 300 μmol/kg, 6 h): 4.6 ± 1.6 nmol/g wet wt | Pancreas concentration of administered compound ([3]; sc 300 μmol/kg, 8 h): 2.7 ± 2.6 nmol/g wet wt | concentration at 2 h ([3]; sc 300 μmol/kg, plasma, 2 h, read-out: Plasma concentration of administered compound): 16.2 ± 4.2 µM | concentration at 4 h ([3]; sc 300 μmol/kg, plasma, 4 h, read-out: Plasma concentration of administered compound): 5.3 ± 2.6 µM | concentration at 6 h ([3]; sc 300 μmol/kg, plasma, 6 h, read-out: Plasma concentration of administered compound): 1 ± 1 µM | concentration at 8 h ([3]; sc 300 μmol/kg, plasma, 8 h, read-out: Plasma concentration of administered compound): 0 nM | Metabolism back to (S)-4-(HO)DADFT ([3]; sc, any tissue): very little metabolism | Kidney level compared with (S)-4-(HO)-DADFT ([3]; sc, kidney, any time point): much less of the PE in the kidney
Structure (SMILES): COCCOCCOCCOc1ccc(C2=N[C@@](C)(C(=O)O)CS2)c(O)c1 [(S)-4′-(HO)-DADFT-PE, (S)-4,5-Dihydro-2-[2-hydroxy-4-[2-[2-(2-methoxyethoxy)ethoxy]ethoxy]phenyl]-4-methyl-4-thiazolecarboxylic Acid]
Efficiency (%) (iron clearing efficiency) ([1]; p.o.): 6.6 ± 1.9% | Efficiency (%) (iron clearing efficiency) ([1]; s.c.): 8.7 ± 2.8% | Iron clearing efficiency compared with parent drug (S)-4-(HO)-DADFT ([1]; same micromole per kilogram dose): work better than the parent drug | Iron clearing efficiency compared with (S)-4′-(HO)-DADFT [2]: at least as efficient as (S)-4′-(HO)-DADFT
